This note sets out measurements from patent US20240148821A1, “PHARMACEUTICAL USE OF CYCLIC PEPTIDE COMPOUND” (CHUGAI SEIYAKU KABUSHIKI KAISHA, priority 2021, published 2024).

pIC50: −log10 of the molar value. Numbered stars: 1 amine (or outer) side, 2 acyl side, 3 side chain; on linkers, the order of the positions; unused ones are H or OH. Bridge positions count the residues as written; N and C are the ends. Square brackets hold non-standard residues; d marks the D form. Peptide text beside a SMILES is read from it. * marks the point of attachment. hPhe(3-Cl-4-CF3) = N[C@@H](CCc1ccc(C(F)(F)F)c(Cl)c1)C(=O)O; hPhe(3-F,4-CF3) = N[C@@H](CCc1ccc(C(F)(F)F)c(F)c1)C(=O)O; X27 = CN([C@@H](Cc1ccc(C(F)(F)F)nc1)C(=O)[*:2])[*:1]; NMePhe(4-Me) = CN[C@@H](Cc1ccc(C)cc1)C(=O)O; NMedβ3hAla = C[C@H](CC(=O)[*:2])N(C)[*:1]; NMeGly(cPent) = CN[C@H](C(=O)O)C1CCCC1; Phe(3-I) = N[C@@H](Cc1cccc(I)c1)C(=O)O; NMeCha = CN[C@@H](CC1CCCCC1)C(=O)O; NMeGly(cPr) = CN[C@H](C(=O)O)C1CC1; NMehLeu = CN[C@@H](CCC(C)C)C(=O)O; NMeChg = CN[C@H](C(=O)O)C1CCCCC1; NMeI = CC[C@H](C)[C@H](NC)C(=O)O; hPhe = N[C@@H](CCc1ccccc1)C(=O)O; NMeD = CN[C@@H](CC(=O)O)C(=O)O; NMeL = CN[C@@H](CC(C)C)C(=O)O; NMeV = CN[C@H](C(=O)O)C(C)C; d(β3hA) = C[C@@H](N)CC(=O)O; NMeS = CN[C@@H](CO)C(=O)O; Morpholide = C1CN(*)CCO1; NMeA = CN[C@@H](C)C(=O)O; NMeAib = CNC(C)(C)C(=O)O; Piperidide = C1CCN(*)CC1; Ac5c = NC1(C(=O)O)CCCC1; Aze = O=C(O)[C@@H]1CCN1; Isopentyl = CC(C)CC*; Sar = CNCC(=O)O; Propyl = CCC*

The subject of this experiment is Human pancreatic cancer cell line AsPC-1 (G12D mutation Kras). In words: AsPC-1 cell growth inhibition (AsPC-1 CGI). The class given is cell-based. The settings on record: read-out: AsPC-1 cell growth inhibition, 50% growth inhibitory concentration (IC50 value); 96 hours, CellTiter-Glo, values classified in ranges.
Procedure: Test compounds were serially dilated with dimethyl sulfoxide, and 200 nL was then dispensed to a U-bottom 96-well plate using Labcyte Echo. […] The cell suspension was dispensed to a. plate containing a test compound at 100 μL per well and incubated at 37° C. in a 5% carbon dioxide gas incubator. 96 hours later, 80 μL of CellTiter-Glo (Promega) was added to each well and fluorescence was measured.
As for `CC[C@H](C)[C@@H]1NC(=O)[C@H](CC(C)C)N(C)C(=O)C[C@@H](C(=O)N(C)C)N(C)C(=O)[C@H]([C@@H](C)CC)N(C)C(=O)[C@H](C(C)C)NC(=O)[C@H](C)N(C)C(=O)[C@H](CCc2ccc(C(F)(F)F)c(Cl)c2)NC(=O)CN(C)C(=O)[C@H](Cc2ccc(C)cc2)N(C)C(=O)[C@@H]2CCN2C(=O)[C@H](C)N(C)C1=O` [Compound 4] ([NMeL]I[NMeA][Aze][NMePhe(4-Me)][Sar][hPhe(3-Cl-4-CF3)][NMeA]V[NMeI][NMeD]-NMe2; lactam N-11), the pIC50 was under 6.30. The figure for `CC[C@H](C)[C@@H]1NC(=O)[C@H](CC(C)C)N(C)C(=O)C[C@@H](C(=O)N2CCCCC2)N(C)C(=O)[C@H](C2CCCCC2)N(C)C(=O)C2(CCCC2)NC(=O)[C@H](Cc2ccc(C(F)(F)F)nc2)N(C)C(=O)[C@H](CCc2ccc(C(F)(F)F)c(Cl)c2)NC(=O)CN(C)C(=O)[C@H](CC2CCCCC2)N(C)C(=O)[C@@H]2CCN2C(=O)CN(C)C1=O` [Compound 6] ([NMeL]I[Sar][Aze][NMeCha][Sar][hPhe(3-Cl-4-CF3)][X27][Ac5c][NMeChg][NMeD]-Piperidide; lactam N-11) is under 6.30; for `COC[C@@H]1NC(=O)[C@H](CC(C)C)N(C)C(=O)C[C@@H](C(=O)N2CCCCC2)N(C)C(=O)[C@H](C(C)C)N(C)C(=O)C2(CCCC2)NC(=O)[C@@H]2CCCN2C(=O)[C@H](CCc2ccc(C(F)(F)F)c(Cl)c2)NC(=O)CN(C)C(=O)[C@H](CC2CCCCC2)N(C)C(=O)[C@@H]2CCN2C(=O)[C@H](C)N(C)C1=O` [Compound 7] ([NMeL]S(Me)[NMeA][Aze][NMeCha][Sar][hPhe(3-Cl-4-CF3)]P[Ac5c][NMeV][NMeD]-Piperidide; lactam N-11) it is under 6.30; for `CCCOC[C@H]1C(=O)N(C)CC(=O)N[C@@H](CCc2ccc(C(F)(F)F)c(F)c2)C(=O)N2CCC[C@H]2C(=O)NC2(CCCC2)C(=O)N(C)[C@@H](C2CCCC2)C(=O)N(C)[C@H](C(=O)N2CCOCC2)CC(=O)N(C)[C@@H](CC(C)C)C(=O)N[C@@H]([C@@H](C)CC)C(=O)N(C)[C@@H](C)C(=O)N2CC[C@H]2C(=O)N1C` [Compound 9] ([NMeL]I[NMeA][Aze][NMeS](Propyl)[Sar][hPhe(3-F,4-CF3)]P[Ac5c][NMeGly(cPent)][NMeD]-Morpholide; lactam N-11) it is at least 7.70. As to `CC[C@H](C)[C@@H]1NC(=O)[C@H](CC(C)C)N(C)C(=O)C[C@@H](C(=O)N2CCCCC2)N(C)C(=O)[C@H](CC(C)C)NC(=O)C(C)(C)N(C)C(=O)[C@H](CCc2ccccc2)NC(=O)[C@H](Cc2cccc(I)c2)NC(=O)CN(C)C(=O)[C@H](Cc2ccc(C)cc2)N(C)C(=O)CN(C)C(=O)CN(C)C1=O` [Compound 13] ([NMeL]I[Sar][Sar][NMePhe(4-Me)][Sar][Phe(3-I)][hPhe][NMeAib]L[NMeD]-Piperidide; lactam N-11), the pIC50 was under 6.30. Regarding `CC[C@H](C)[C@@H]1NC(=O)[C@H](CC(C)C)N(C)C(=O)C[C@@H](C)NC(=O)[C@H](C2CC2)N(C)C(=O)C2(CCCC2)NC(=O)[C@@H]2CCCN2C(=O)[C@H](CCc2ccc(C(F)(F)F)c(Cl)c2)NC(=O)CN(C)C(=O)[C@H](CC2CCCCC2)N(C)C(=O)CN(C)C(=O)CN(C)C1=O` [Compound 14] (cyclo([Ac5c][NMeGly(cPr)][d(β3hA)][NMeL]I[Sar][Sar][NMeCha][Sar][hPhe(3-Cl-4-CF3)]P)), the pIC50 is under 6.30. The figure for `CC[C@H](C)[C@@H]1NC(=O)[C@H](CC(C)C)N(C)C(=O)C[C@@H](C)N(C)C(=O)[C@H](CCC(C)C)N(C)C(=O)C2(CCCC2)NC(=O)[C@@H]2CCCN2C(=O)[C@H](CCc2ccc(C(F)(F)F)c(Cl)c2)NC(=O)CN(C)C(=O)[C@H](CC2CCCCC2)N(C)C(=O)CN(C)C(=O)CN(C)C1=O` [Compound 22] (cyclo([Ac5c][NMehLeu][NMedβ3hAla][NMeL]I[Sar][Sar][NMeCha][Sar][hPhe(3-Cl-4-CF3)]P)) is under 6.30; for `CC[C@H](C)[C@@H]1NC(=O)[C@H](CC(C)C)N(C)C(=O)C[C@@H](C(=O)N(C)C)N(C)C(=O)[C@H](C2CCCC2)N(C)C(=O)[C@H](C(C)C)NC(=O)[C@@H](C)NC(=O)[C@H](CCc2ccc(C(F)(F)F)c(Cl)c2)NC(=O)CN(C)C(=O)[C@H](CC2CCCCC2)N(C)C(=O)[C@@H]2CCN2C(=O)[C@H](C)N(C)C1=O` [Compound 24] ([NMeL]I[NMeA][Aze][NMeCha][Sar][hPhe(3-Cl-4-CF3)][dA]V[NMeGly(cPent)][NMeD]-NMe2; lactam N-11) it is under 6.30; for `CC[C@H](C)[C@@H]1NC(=O)[C@H](CC(C)C)N(C)C(=O)C[C@@H](C(=O)N(C)C)N(C)C(=O)[C@H]([C@@H](C)CC)N(C)C(=O)C2(CCCC2)NC(=O)[C@H](COCCC(C)C)N(C)C(=O)[C@H](CCc2ccc(C(F)(F)F)c(Cl)c2)NC(=O)CN(C)C(=O)[C@H](Cc2ccc(C)cc2)N(C)C(=O)[C@@H]2CCN2C(=O)[C@H](C)N(C)C1=O` [Compound 27] ([NMeL]I[NMeA][Aze][NMePhe(4-Me)][Sar][hPhe(3-Cl-4-CF3)][NMeS](Isopentyl)[Ac5c][NMeI][NMeD]-NMe2; lactam N-11) it is at least 7.70.
